Data: ChEMBL document CHEMBL1821674, “Design, synthesis and biological evaluation of novel nitroaromatic compounds as potent glutathione reductase inhibitors” (Bioorg Med Chem Lett, 2011)
pIC50, pKi: −log10 of the molar value.

What was measured:
[1] = target: T1, Glutathione reductase, mitochondrial (Homo sapiens, UniProt P00390); test: Non-Competitive inhibition of human erythrocyte Glutathione reductase using GSSG substrate by Lineweaver-Burk plot analysis
T1 sequence (P00390 whole entry): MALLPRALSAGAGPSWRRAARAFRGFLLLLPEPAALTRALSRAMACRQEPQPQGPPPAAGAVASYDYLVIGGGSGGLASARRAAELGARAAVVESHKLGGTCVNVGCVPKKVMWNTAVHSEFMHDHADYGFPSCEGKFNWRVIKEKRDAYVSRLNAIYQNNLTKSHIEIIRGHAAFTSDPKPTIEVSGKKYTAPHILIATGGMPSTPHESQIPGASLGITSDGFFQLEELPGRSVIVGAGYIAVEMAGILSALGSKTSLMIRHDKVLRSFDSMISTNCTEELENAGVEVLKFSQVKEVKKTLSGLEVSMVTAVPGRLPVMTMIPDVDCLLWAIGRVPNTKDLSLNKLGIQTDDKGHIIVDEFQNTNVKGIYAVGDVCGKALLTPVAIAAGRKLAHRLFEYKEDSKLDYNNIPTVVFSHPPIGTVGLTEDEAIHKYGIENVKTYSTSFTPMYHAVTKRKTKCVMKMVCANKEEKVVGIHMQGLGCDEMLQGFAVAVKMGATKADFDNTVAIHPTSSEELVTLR

[2] = target: T1, Glutathione reductase, mitochondrial; test: Inhibition of human erythrocyte Glutathione reductase
[3] = target: T1, Glutathione reductase, mitochondrial

SMILES	pKi [1]	pIC50 [2]	pKi [3]
CC(C)(C)OC(=O)N[C@@H](CCCCNC(=O)OCc1ccccc1Cl)C(=O)Oc1ccc([N+](=O)[O-])cc1	5.38	4.81	
CC[C@H](CO)NCc1ccc([N+](=O)[O-])cc1		4.88	5.34
O=C(O)CC[C@H](NC(=O)c1ccc([N+](=O)[O-])cc1)C(=O)O		6.46	6.68
N[C@@H](CCC(=O)O)C(=O)O [GLUTAMIC ACID]		4.27	4.37
NCCCC[C@H](N)C(=O)O [LYSINE]		4.21	4.26
COC(=O)C1=C(C)NC(C)=C(C(=O)OC)C1c1ccccc1[N+](=O)[O-] [NIFEDIPINE]		4.63	4.76
O=[N+]([O-])c1ccccc1 [NITROBENZENE]		3.26	3.56
